Measurements taken from US20100055217A1, “COSMETIC COMPOSITION COMPRISING A COMBINATION OF LIPOCHROMAN-6 AND AN EXTRACT OF LONGOZA, AND ITS USE” (LVMH RECHERCHE, priority 2008, published 2010).

Test system: oxidized proteins of normal human keratinocytes (NHK)
Assay: Level of oxidized proteins of epidermal cells (DNPH/anti-DNP immunostaining, confocal image analysis)
Assay type: cell-based
Conditions: for Proportion of oxidized proteins/cell, KHN 0002: NHK donor KHN 0002; for Proportion of oxidized proteins/cell, KHN 0002 / Proportion of oxidized proteins/cell, KHN 9726: 48 h treatment; for Proportion of oxidized proteins/cell, KHN 9726: NHK donor KHN 9726; for DNP marking/no. of cells / DNP marking/surface area measured / Surface area of DNP marking: NHK; for DNP marking/no. of cells / DNP marking/surface area measured / Surface area of DNP marking / Proportion of oxidized proteins/cell, Average / Reduction %/control: 48 h; for Proportion of oxidized proteins/cell, Average / Reduction %/control: average of both NHK donors; for Reduction %/control: vs control excipient
Description: Normal human keratinocytes (NHK) isolated from two samplings of humans skin from two different donors, and referred to hereinafter as KHN002 and KHN9726, are cultured in T75 flasks in complete KSFM medium (Invitrogen GIBCO) at 37° C. and 5% of CO2, and are seeded at 20 000 cells per well in 8-well Lab-Tek II culture systems (Nalge Nunc International).
After 48 h of culture, the cells are treated with the treatment solutions (see below).
A solution of Lipochroman-6 at 0.004% by weight per volume (w/v) is prepared (solution A).
This is done by dissolving 20 mg of lipochroman-6 powder (supplier: Lipotec) in 2 ml of ethanol (solution at 10 mg/ml). This solution is diluted (40 μl of the stock solution in 10 ml of KSFm medium) to give solution A.
Furthermore, a solution of Longoza at 0.2% w/v in the KSFMc medium is prepared (solution B), from the 1% w/v solution prepared in accordance with step g) of Example 1. The 1% w/v Longoza extract solution is diluted ([…] of the 1% w/v solution in 6 ml of KSFm medium) to give said solution B.
The treatment solutions are prepared by diluting solutions A and B, prepared above, in the KSFMc medium to give the correct percentage of each of the actives of the combination (% expressed by weight per volume).
Each treatment is carried out on 3 wells per cell type. • control: KSFMc • solvent control: ethanol 0.1% in KSFMc medium • lipochroman 0.001% • lipochroman 0.002% • lipochroman 0.001%+Longoza 0.05% • lipochroman 0.001%+Longoza 0.1% • lipochroman 0.002%+Longoza 0.05% • lipochroman 0.002%+Longoza 0.1%
After 48 hours of treatment, the KSFM medium is drawn off.
The cells are rinsed with PBS (PBS Tablets, Invitrogen GIBCO), and then fixed on slides by means of formaline (Formalin Solution 10% Neutral Buffered, Sigma) for 10 minutes at ambient temperature. After rinsing with PBS, the culture chambers are filled with a 0.1% Triton solution (Triton X-100, Sigma) for 10 minutes and then rinsed with PBS.
The culture chambers are subsequently disassembled and the slides are immersed in a solution of 2,4-dinitrophenylhydrazine (300 mg of DNPH (Fluka) in an ethanol/sulphuric acid mixture (98.5 ml/1.5 ml)) for 30 minutes.
The DNPH reacts with the carbonyl groups of the oxidized proteins in accordance with the following reaction:
The slides are rinsed ten times with PBS. The cells are then covered with a solution of PBS/BSA at 1% (10 g/l) by weight at ambient temperature for 30 minutes.
The dinitrophenyl (DNP) groups bound to the oxidized proteins are recognized by a primary anti-DNP antibody.
For this purpose, in a first step, the slides are covered with a solution of primary antibody (monoclonal mouse anti-DNP antibody, Sigma), diluted at 1/500 th in a PBS/BSA 1% solution, and are incubated for 60 minutes at ambient temperature in an oven, then rinsed with a PBS-Tween0.1% (Tween20, Merck) solution.
In a second step, the cells are covered with a solution of secondary antibody (Alexafluor 546 Goat anti-mouse, Invitrogen) in a PBS/BSA 1% by weight solution, and are incubated in the absence of light for 60 minutes. The slides are subsequently rinsed with PBS-Tween and then with PBS.
In a third step, a few drops of aqueous mounting medium (Fluorescent Mounting Medium, DAKO, S 3023) are applied to the slides, which are subsequently stored at 4° C. in the dark.
The photographs are taken by confocal microscopy (Axioplan microscope, Zeiss, and Krypton-Argon Laser, BioRad) with the aid of the LaserSharp 2000 software (BioRad). For each condition, three photos are taken with the x40 lens, with the same acquisition parameters (gain, iris).
The excitation wavelength of the fluorochrome is 546 nm and the emission wavelength is 573 nm.
In practice, an exciting fluorescence at […] is applied by the confocal laser to the cells. The fluorochrome Alexafluor 546, which represents the oxidized proteins, emits fluorescence at 573 nm, which is recovered by a specific filter and can be observed. […]

Structure (SMILES): COc1cc2c(cc1O)CCC(C)(C)O2 [lipochroman-6]
- Proportion of oxidized proteins/cell, KHN 0002 (lipochroman-6 0.001% w/v): 76.3
- Proportion of oxidized proteins/cell, KHN 0002 (lipochroman-6 0.002% w/v): 60.9
- Proportion of oxidized proteins/cell, KHN 9726 (lipochroman-6 0.001% w/v): 88
- Proportion of oxidized proteins/cell, KHN 9726 (lipochroman-6 0.002% w/v): 43
- DNP marking/no. of cells (Lipochroman 0.001%): 82.1
- DNP marking/surface area measured (Lipochroman 0.001%): 28.7%
- Surface area of DNP marking (Lipochroman 0.001%): 3776
- DNP marking/no. of cells (Lipochroman 0.002%): 52.0
- DNP marking/surface area measured (Lipochroman 0.002%): 18.4%
- Surface area of DNP marking (Lipochroman 0.002%): 2415
- Proportion of oxidized proteins/cell, Average (lipochroman-6 0.001% w/v): 82.1
- Reduction %/control (lipochroman-6 0.001% w/v): −19.43%
- Proportion of oxidized proteins/cell, Average (lipochroman-6 0.002% w/v): 52
- Reduction %/control (lipochroman-6 0.002% w/v): −48.97%
